In patent US10091997B2, “Composition for inhibition of insect host sensing” (Vanderbilt University, priority 2010, dated 2018):

Assays:
[1] = target: T1, AgORco (Anopheles gambiae, UniProt Q7QCC7); experiment: whole-cell patch clamp, HEK293 cells stably expressing AgORco alone; assay type: cell-based; settings: for whole-cell currents: AgORco alone cells, clamped at −60 mV
T1 construct: expressed in transfected cells
T1 sequence (Q7QCC7 1-478): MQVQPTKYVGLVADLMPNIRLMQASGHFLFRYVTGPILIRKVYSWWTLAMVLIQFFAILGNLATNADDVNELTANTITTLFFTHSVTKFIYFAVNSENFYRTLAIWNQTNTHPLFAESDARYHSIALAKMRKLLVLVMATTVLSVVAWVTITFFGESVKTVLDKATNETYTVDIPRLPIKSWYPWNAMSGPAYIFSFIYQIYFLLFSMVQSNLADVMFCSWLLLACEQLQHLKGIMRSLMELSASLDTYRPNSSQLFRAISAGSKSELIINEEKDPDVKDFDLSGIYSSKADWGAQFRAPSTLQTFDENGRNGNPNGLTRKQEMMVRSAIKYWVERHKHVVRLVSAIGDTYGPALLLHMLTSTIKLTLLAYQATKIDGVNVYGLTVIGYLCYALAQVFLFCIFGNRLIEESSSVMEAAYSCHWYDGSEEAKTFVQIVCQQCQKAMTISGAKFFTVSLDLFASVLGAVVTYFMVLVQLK
Procedure: (§1) Currents from OR-expressing HEK293 cells were amplified with an Axopatch 200b Amplifier (Axon Instruments) and digitized through a Digidata 1322A (Axon Instruments). Electrophysiological data was recorded and analyzed using pCLAMP 10 (Axon Instruments). Electrodes were fabricated from quartz tubing (Sutter Instruments) and pulled to 4-6 MΩ for whole cell recording. Electrodes were filled with internal solution (120 mM KCl, 30 mM D-glucose, 10 mM HEPES, 2 mM MgCl2, 1.1 mM EGTA, and 0.1 CaCl2 (pH 7.35, 280 mOsm). External (bath) solution contained 130 mM NaCl, 34 mM D-glucose, 10 mM HEPES, 1.5 mM CaCl2, 1.3 mM KH2PO4, and 0.5 MgSO4 (pH 7.35, 300 mOsm). Compounds were diluted in external solution and locally perfused to the recording cell using Perfusion Pencil (Automate Scientific) and controlled by a ValveLink 8.2 controller (Automate Scientific). Whole cell recordings were sampled at 10 kHz and filtered at 5 kHz. Outside-out patches were obtained using 10-15MΩ electrodes pulled from standard glass capillaries (World Precision Instruments) and fire-polished with an MF-830 micro forge (Narishige). Single channel recordings were sampled at 20 kHz. Recordings were reduced to 1 kHz and low-pass filtered at 500 Hz for display and analysis using QuB (SUNY at Buffalo).
(§2) To test the hypothesis that VUAA1 directly agonized AgORco, whole-cell patch clamp responses were examined in AgORco+AgOR10 expressing cells as well HEK293 cells stably expressing AgORco alone. […] The VUAA1-dependent currents in AgORco+AgOR10 cells resembled those resulting from application of benzaldehyde, an orthosteric agonist of AgOR10 (FIG. 3C) (Wang, 2010; Carey, 2010). AgORco+AgOR10 cells were more sensitive to VUAA1 than AgORco cells, producing inward currents at −5.0 log M, a concentration at which AgORco had no response. […] To investigate the specificity of VUAA1 agonism, the inventors transiently transfected HEK cells with the AgORco orthologs of Drosophila melanogaster and Heliothis virescens, DmOR83b and HvOR2 respectively.

[2] = test system: AgORco+AgOR10; experiment: whole-cell patch clamp, HEK293 cells expressing AgORco+AgOR10; assay type: cell-based, Anopheles gambiae; settings: for whole-cell currents: AgORco+AgOR10 cells, clamped at −60 mV
Procedure: as §1, §2

[3] = target: T2, rat transient receptor potential vanilloid 1 (rTRPV1) (Rattus norvegicus, UniProt O35433); experiment: whole-cell patch clamp, HEK cells stably expressing rTRPV1; assay type: cell-based
T2 construct: expressed in transfected cells
T2 sequence (O35433 whole entry): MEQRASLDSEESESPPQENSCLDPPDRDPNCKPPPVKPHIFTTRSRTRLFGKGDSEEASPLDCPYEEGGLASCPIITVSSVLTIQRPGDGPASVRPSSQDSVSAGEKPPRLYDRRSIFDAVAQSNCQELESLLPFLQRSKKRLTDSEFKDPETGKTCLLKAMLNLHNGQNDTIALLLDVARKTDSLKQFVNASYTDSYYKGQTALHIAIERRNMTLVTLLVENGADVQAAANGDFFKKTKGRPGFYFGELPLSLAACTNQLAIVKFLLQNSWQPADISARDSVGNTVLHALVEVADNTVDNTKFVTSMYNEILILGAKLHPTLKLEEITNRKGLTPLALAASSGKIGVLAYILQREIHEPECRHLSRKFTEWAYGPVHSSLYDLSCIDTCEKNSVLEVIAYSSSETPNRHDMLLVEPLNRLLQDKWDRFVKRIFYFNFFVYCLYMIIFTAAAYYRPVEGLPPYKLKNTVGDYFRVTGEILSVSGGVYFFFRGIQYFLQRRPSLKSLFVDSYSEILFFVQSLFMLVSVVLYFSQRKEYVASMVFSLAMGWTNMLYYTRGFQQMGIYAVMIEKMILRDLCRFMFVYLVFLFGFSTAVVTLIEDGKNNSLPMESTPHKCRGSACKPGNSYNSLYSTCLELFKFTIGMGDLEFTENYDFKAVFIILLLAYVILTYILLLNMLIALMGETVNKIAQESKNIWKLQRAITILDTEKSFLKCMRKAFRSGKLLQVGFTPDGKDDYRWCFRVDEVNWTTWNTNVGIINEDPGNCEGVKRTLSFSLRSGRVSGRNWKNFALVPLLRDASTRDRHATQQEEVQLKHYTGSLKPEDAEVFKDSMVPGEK
Source text: To determine the broad-spectrum specificity of VUAA1, the inventors tested VUAA1 on another non-selective cation channel, transient receptor potential vanilloid receptor 1 (TRPV1) (Caterina, 1997; Bohlen, 2010).

[4] = test system: Un-transfected HEK293 cells; experiment: whole-cell patch clamp, control HEK293 cells (un-transfected or GFP alone); assay type: cell-based, human
Procedure: as §1

SMILES | whole-cell currents [1] | whole-cell currents [2] | other results
Nc1ncnc2c1nc(Br)n2[C@@H]1O[C@@H]2COP(=O)(O)O[C@H]2[C@H]1O [8-Br cAMP] | unable to evoke whole-cell currents | unable to evoke whole-cell currents | –
Nc1nc2c(nc(Br)n2[C@@H]2O[C@@H]3COP(=O)(O)O[C@H]3[C@H]2O)c(=O)[nH]1 [8-Br cGMP] | unable to evoke whole-cell currents | unable to evoke whole-cell currents | –
COc1cc(CNC(=O)CCCC/C=C/C(C)C)ccc1O [Capsaicin, reference compound] | – | – | whole-cell currents [3]: elicited a robust response
N.N.N.N.N.N.N.N.N.N.N.N.N.N.[Cl-].[Cl-].[Cl-].[Cl-].[Cl-].[Cl-].[O-2].[O-2].[Ru+3].[Ru+3].[Ru+4] [RR, ruthenium red] | – | – | reduction of VUAA1 responses ([1]; AgORco cells, agonist VUAA1): 79.4±4.0%; reduction of VUAA1-elicited currents ([2]; AgOrco+AgOR10 cells, agonist VUAA1): 68.3±2.8%; reduction of benzaldehyde-elicited currents ([2]; AgOrco+AgOR10 cells, agonist benzaldehyde): 87.8±1.8%
O=Cc1ccccc1 [benzaldehyde, reference compound] | only AgORco+AgOR10 cells responded to BA | concentration-dependent responses | whole-cell currents in GFP alone cells ([4]; HEK cells transfected with GFP alone): no currents; whole-cell currents in control cells ([4]; control / un-transfected HEK293 cells): did not respond
